Test [1] has as its system Ileum. The experiment in a line: Ionotropic activity in Cavia porcellus (guinea pig) ileum assessed as inhibition of acetylcholine-induced contraction after 15 min by physiographic analysis. The class given is functional, tissue-based. To be noted: 0.25 h, read-out: pA2 (converted).
Test [2] relates to Mus musculus. The test is described as follows: Antitremor activity in ip dosed Mus musculus (mouse) assessed as concentration required to inhibit oxotremorine-induced tremor effect administered 15 to 20 min prior to oxotremorine challenge measured 15 to 20 min post oxotremorine challenge. The class given is functional.
For test [3], the system named is Ileum. The experiment in a line: Ionotropic activity in Cavia porcellus (guinea pig) ileum assessed as concentration required to inhibit acetylcholine-induced contraction after 15 min by physiographic analysis. The format is functional.
Test [4] deals with Mus musculus. The experiment in a line: Antitremor activity in ip dosed Mus musculus (mouse) assessed as inhibition of oxotremorine-induced tremor effect administered 15 to 20 min prior to oxotremorine challenge measured 15 to 20 min post oxotremorine challenge. The class given is functional, organism-based.

Activity calls are given as the source filed them. The calls are words filed in the database; no cut-off is given here.

Turning to `O=C1c2ccccc2C(=O)N1CC#CCN1CCCCC1`, the Kb in test [1] is 1580 nM. In addition, the INH in test [2] worked out at 7.6 µmol/kg; in test [3], 1.6 ×10⁻⁶ mol/L.
Turning to `CC1CCCC(C)N1CC#CCNC(=O)c1ccccc1C(=O)NCC#CCN1C(C)CCCC1C` (stereo not given), the Kb in test [1] was 1580 nM. Moreover, in test [4], the inhibition entry was “inactive”. Further, the INH in test [3] was found to be 3 ×10⁻⁶ mol/L.
Take `O=C(NCC#CCN1CCCCC1)c1ccccc1C(=O)NCC#CCN1CCCCC1`: the Kb in test [1] is 2510 nM. The INH in test [2] turned out to be 8 µmol/kg; in test [3], 1.6 ×10⁻⁶ mol/L.
With `CN1[C@@H]2CC[C@H]1C[C@@H](OC(=O)C(CO)c1ccccc1)C2` (stereo not given in full) [ATROPINE], the Kb in test [1] was 3.98 nM. For the same compound, the INH turned out to be 2.8 µmol/kg in test [2] and 3.7 ×10⁻⁹ mol/L in test [3].
With `CC1CCCC(C)N1CC#CCN1C(=O)c2ccccc2C1=O` (stereo not given), the Kb in test [1] was 2000 nM. In test [4], the inhibition result was “inactive”. The INH in test [3] was 2 ×10⁻⁶ mol/L.
`CC1CCCCN1CC#CCN1C(=O)c2ccccc2C1=O` (stereo not given): in test [1], the Kb was 1260 nM. The INH in test [2] was determined as 9.6 µmol/kg; in test [3], 1.2 ×10⁻⁶ mol/L.
On to `CC1CCCCN1CC#CCNC(=O)c1ccccc1C(=O)NCC#CCN1CCCCC1C` (stereo not given), for which the Kb in test [1] is 2000 nM. Moreover, the INH in test [3] is reported as 1.2 ×10⁻⁶ mol/L.
Turning to `O=C1c2ccccc2C(=O)N1CC#CCN1CCCCCCC1`, the Kb in test [1] is 794 nM. Moreover, the INH in test [2] came to 2.4 µmol/kg; in test [3], 8 ×10⁻⁷ mol/L.
As for `O=C(NCC#CCN1CCCCCCC1)c1ccccc1C(=O)NCC#CCN1CCCCCCC1`, the Kb in test [1] is 1260 nM. Further, the INH in test [3] was determined as 5 ×10⁻⁶ mol/L.

The values above are taken from ChEMBL document CHEMBL3046524, “Synthesis and biological evaluation of N 1,N 2-bis-[4-(t-amino)-2-butynyl]phthalamides as oxotremorine and acetylcholine antagonists” (Med Chem Res, 2013).
